{"source": "paper PMC8505397", "about": "“Development of peptides targeting receptor binding site of the envelope glycoprotein to contain the West Nile virus infection” (Scientific Reports, 2021)", "target": "T1, interaction between rDIII and ~ 15 kDa receptor of hBMECs (West Nile virus, UniProt P06935)", "T1 construct": "rDIII – recombinant domain III; made in house; host or cells: E. coli M15", "T1 sequence (P06935 584-692 limits assumed)": "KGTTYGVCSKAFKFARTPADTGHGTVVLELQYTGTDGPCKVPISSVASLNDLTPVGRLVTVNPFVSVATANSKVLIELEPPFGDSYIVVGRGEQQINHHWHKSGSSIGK", "test": "Blocking of interaction between rDIII and proteins of hBMECs by peptides (Western blot)", "assay_type": "binding, West Nile virus / human", "conditions": "2.5 µg (0.19 nM) rDIII pre-incubated with tenfold molar excess (1.9 nM) of peptide", "method": "First, concentration-dependent ELISA and Western blot were performed to get the minimum concentration of rDIII required to show its interaction with hBMECs proteins. Details are presented in Supplementary Method S12 and Supplementary Method S13. Subsequently, the ability of 7-mer and 12-mer peptides to block the interaction between rDIII and proteins of hBMECs was tested. A tenfold molar excess of peptides was incubated with rDIII for 1 h at room temperature. Such pre-incubated rDIII was subsequently used in the assays. Details of both methods are described in Supplementary Method S12 and Supplementary Method S13. […]\nBlocking of interaction between rDIII and proteins of hBMECs by peptides (Western blot).\nTwo hundred micrograms of proteins extracted from hBMECs were separated on 2-well PAGE […]\ngel (12% polyacrylamide gel) and transferred on 0.45 μm nitrocellulose membrane (Amersham Protran; GE Healthcare) for 1 h at 30 V. Details of LDS-PAGE are described in Supplementary Methods S7. The membrane was cut horizontally to obtain proteins of molecular weight between ~10 kDa to ~25 kDa. Subsequently, this membrane was sliced vertically to obtain 0.3 cm strips, which were then used in Western blot (Supplementary Fig.\nThe NC strips with transblotted hBMECs proteins were first incubated with rDIII at various concentrations to find out the minimal concentration of rDIII required to detect the interaction with hBMECs proteins. Non-specific binding sites were blocked with 1% BSA in 0.05% TBST (pH 7.2) for 1 h at room temperature and constant shaking followed by a washing step for 5 min with 0.05% TBST. The NC strips were incubated with rDIII at different concentrations (5 µg, 2.5 µg, 2 µg, 1 µg, 500 ng) diluted in 1 mL of 0.05% TBST for 3 h at room temperature and constant shaking. After 3 washings with 0.05% TBST, strips were incubated with HisProbe-HRP conjugate (1:5,000 dilution in 0.1% BSA in 0.05% TBST; Thermo Fisher Scientific) for 30 min at room temperature. Six washings, each of 5 min were performed before incubating the strips in SuperSignal chemiluminescence substrate (Thermo Fisher Scientific). The signal was captured on the C-DiGit Blot Scanner (Odyssey CLx, LI-COR Biosciences). For negative control, rDIII was excluded from the above-mentioned protocol.\nTo block the interaction, the NC strips were blocked as described above.\nSimultaneously, 2.5 µg (0.19 nM) of rDIII were pre-incubated with 2.75 µg of each peptide (10-fold molar excess; 1.9 nM) in TBS for 1 h at room temperature. Further on, strips were incubated with pre-incubated rDIII for 3 h at room temperature with constant shaking. After 3 washings with 0.05% TBST, strips were incubated with HisProbe-HRP conjugate as described above. […]", "data": [{"compound": "CC[C@H](C)[C@@H]1NC(=O)[C@@H](NC(=O)[C@H](C)N)CSSC[C@@H](C(=O)NCC(=O)NCC(=O)NCC(=O)N[C@@H](CO)C(=O)O)NC(=O)[C@H](C)NC(=O)[C@H](CCCNC(=N)N)NC(=O)[C@H]([C@@H](C)O)NC(=O)[C@H](CO)NC(=O)[C@H](CO)NC(=O)[C@H](Cc2c[nH]cn2)NC1=O", "note": "[CP4, CIHSSTRAC]", "values": [{"measurement": "inhibition of the interaction between rDIII and ~ 15 kDa hBMECs receptor (Western blot)", "value": "inhibition of the interaction was confirmed"}]}]}
